Experimental data reported in patent US8426412B2, “2-alkynyl-6-pyridin-2-yl-pyridazinones, 2-alkynyl-6-pyridin-2-yl-dihydropyridazinones, 2-alkynyl-6-pyrimidin-2-yl-pyridazinones and 2-alkynyl-6-pyrimidin-2-yl-dihydropyridazinones and their use as fungicides” (Dow AgroSciences, LLC., priority 2008, dated 2013).
Values after ≈ are worked out from the molar mass of the structure shown. Where two headings read alike, the source gives them in different places.

Experiments:
[1] = target: T1, microsomal Δ-9 fatty acid desaturase (Saccharomyces cerevisiae, UniProt P21147); assay: Inhibition of Δ-9 fatty acid desaturase (desaturation of 14C-palmitoyl-CoA to 14C-palmitoleic acid); details: I50, concentration inhibiting production of palmitoleic acid by 50%; yeast microsomes, 30° C., 5 min
T1 sequence (P21147 1-510): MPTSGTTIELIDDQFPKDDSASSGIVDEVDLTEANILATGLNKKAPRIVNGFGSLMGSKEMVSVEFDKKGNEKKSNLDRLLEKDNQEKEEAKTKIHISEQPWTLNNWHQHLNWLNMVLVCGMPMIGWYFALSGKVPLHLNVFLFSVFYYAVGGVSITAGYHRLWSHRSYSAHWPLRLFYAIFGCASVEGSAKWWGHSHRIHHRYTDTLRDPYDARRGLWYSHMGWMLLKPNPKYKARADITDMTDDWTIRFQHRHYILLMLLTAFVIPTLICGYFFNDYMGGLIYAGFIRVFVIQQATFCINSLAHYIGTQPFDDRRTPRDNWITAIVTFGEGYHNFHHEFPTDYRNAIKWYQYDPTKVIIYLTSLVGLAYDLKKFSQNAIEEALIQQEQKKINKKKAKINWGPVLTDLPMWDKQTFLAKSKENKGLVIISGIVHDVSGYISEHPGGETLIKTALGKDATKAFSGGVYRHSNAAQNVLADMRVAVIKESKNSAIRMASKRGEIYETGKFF

[2] = system: Colletotrichum lagenarium (COLLLA); assay: Activity towards plant pathogenic fungi, growth inhibition in microtiter plates; type: cell-based; details: Colletotrichum orbiculare, 72 h, read-out: EC50 COLLLA
[3] = system: Pyricularia oryzae (PYRIOR); assay: microbe, parasite or virus in culture; type: cell-based; details: 72 h, read-out: EC50 PYRIOR
Candida albicans = assay: microbe, parasite or virus in culture; type: cell-based
[4] = 50% inhibition of growth, 25° C., NepheloStar plate reader

Compound | IC50 [1] | EC50 [2, 4] | EC50 [3] | also measured
CCCCCCCC#CCn1nc(-c2ccc(Cl)cn2)ccc1=O | 78.5 nM |  |  | 
CCC#CCn1nc(-c2ccc(Br)cn2)ccc1=O | < 123 nM |  |  | 
CCCCOCC#CCn1nc(-c2ccc(Cl)cn2)ccc1=O | 27.1 nM |  |  | 
CCCCOCCC#CCn1nc(-c2ccc(Cl)cn2)ccc1=O | 52 nM |  |  | 
CCCOCCCC#CCn1nc(-c2ccc(Cl)cn2)ccc1=O | 28.9 nM |  |  | 
CCCOCCOCC#CCn1nc(-c2ccc(Cl)cn2)ccc1=O | 108 nM |  |  | 
C=CC#CCn1nc(-c2ccc(Cl)cn2)ccc1=O | 58.9 nM |  |  | 
CCC#CCn1nc(-c2ncc(Br)cn2)ccc1=O | 3790 nM |  |  | 
CCCCCCCC#CCn1nc(-c2ncc(Br)cn2)ccc1=O | 87.3 nM |  |  | 
CCCCCCOCC#CCn1nc(-c2ncc(Br)cn2)ccc1=O | 39.5 nM |  |  | 
CCC#CCn1nc(-c2ccc(C(F)(F)F)cn2)ccc1=O |  | 0.758 µg/mL (≈ 2.47 µM) | 0.674 µg/mL (≈ 2.19 µM) | 
CCC#CCN1N=C(c2cc(Cl)ccn2)CCC1=O |  | 5.75 µg/mL (≈ 20.9 µM) | 5.52 µg/mL (≈ 20 µM) | 
CCC#CCN1N=C(c2ccc(Cl)cn2)CCC1=O |  | 0.194 µg/mL (≈ 0.704 µM) | 0.021 µg/mL (≈ 0.0762 µM) | 
CCC#CCN1N=C(c2ccc(Cl)c(Cl)n2)CCC1=O |  | 0.036 µg/mL (≈ 0.116 µM) | 0.031 µg/mL (≈ 0.0999 µM) | 
CCC#CCn1nc(-c2ccc(F)c(F)n2)ccc1=O |  | 0.181 µg/mL (≈ 0.658 µM) | 0.163 µg/mL (≈ 0.592 µM) | 
CCC#CCn1nc(-c2ccc(Cl)cn2)ccc1=O [drawing 70] | 121 nM |  |  | 
CCCCCOCC#CCn1nc(-c2ccc(Cl)cn2)ccc1=O [drawing 72] | 23.1 nM |  |  | 
CCCCCCCOCC#CCn1nc(-c2ccc(Cl)cn2)ccc1=O [drawing 76] | 45.5 nM |  |  | 
CCCCOCCOCC#CCn1nc(-c2ccc(Cl)cn2)ccc1=O [drawing 77] | 176 nM |  |  | 
CCC(C)CCOCC#CCn1nc(-c2ccc(Cl)cn2)ccc1=O (stereo not shown) [drawing 79] | 422 nM |  |  | 
CCCCCCCOCC#CCn1nc(-c2ccc(Cl)cn2)ccc1=O [drawing 80] | 72.2 nM |  |  | 
O=c1ccc(-c2ccc(Cl)cn2)nn1CC#CC1CC1 [drawing 82] | 472 nM |  |  | 
CCC#CCN1N=C(c2cccc(Cl)n2)CCC1=O [drawing 83] | > 145000 nM |  |  | 
CCC#CCn1nc(-c2cccc(Cl)n2)ccc1=O [drawing 84] | 61400 nM |  |  | 
CCC#CCn1nc(-c2ccc(Cl)c(Cl)n2)ccc1=O [drawing 85] | 263 nM |  |  | 

Compound | IC50 [1] | EC50 [2, 4] | EC50 [3] | also measured
CCC#CCN1N=C(c2ncccc2Cl)CCC1=O [drawing 86] | > 145000 nM |  |  | 
CCC#CCn1nc(-c2ncccc2Cl)ccc1=O [drawing 87] | > 146000 nM |  |  | 
CCC#CCN1N=C(c2ncc(Cl)cc2Cl)CCC1=O [drawing 88] | > 129000 nM |  |  | 
CCC#CCn1nc(-c2ncc(Cl)cc2Cl)ccc1=O [drawing 89] | > 130000 nM |  |  | 
CC(C)(C)C#C/C=C/Cn1nc(-c2ccc(Cl)cn2)ccc1=O [drawing 90] | > 122000 nM |  |  | 
CCC#CCN1N=C(c2nc(Cl)c(Cl)cc2Cl)CCC1=O [drawing 91] | > 116000 nM |  |  | 
CCC#CCn1nc(-c2ccc(Cl)c(F)n2)ccc1=O [drawing 92] | 99.4 nM |  |  | 
CCC#CCn1nc(-c2ccc(Cl)cn2)ccc1=O [drawing 96] |  | 0.113 µg/mL (≈ 0.413 µM) | 0.0474 µg/mL (≈ 0.173 µM) | 
CCCCCOCC#CCn1nc(-c2ccc(Cl)cn2)ccc1=O [drawing 98] |  | 0.007 µg/mL (≈ 0.0202 µM) | 0.192 µg/mL (≈ 0.555 µM) | 
CCCCOCCOCC#CCn1nc(-c2ccc(Cl)cn2)ccc1=O [drawing 99] |  | 0.033 µg/mL (≈ 0.0878 µM) | 0.05 µg/mL (≈ 0.133 µM) | 
CCC(C)CCOCC#CCn1nc(-c2ccc(Cl)cn2)ccc1=O (stereo not shown) [drawing 100] |  | 1.16 µg/mL (≈ 3.22 µM) | 0.284 µg/mL (≈ 0.789 µM) | 
O=c1ccc(-c2ccc(Cl)cn2)nn1CC#CC1CC1 [drawing 101] |  | 0.092 µg/mL (≈ 0.322 µM) | 0.062 µg/mL (≈ 0.217 µM) | 
CCC#CCN1N=C(c2cccc(Cl)n2)CCC1=O [drawing 103] |  | 3.4 µg/mL (≈ 12.3 µM) | 1.01 µg/mL (≈ 3.66 µM) | 
CCC#CCn1nc(-c2cccc(Cl)n2)ccc1=O [drawing 105] |  | 1 µg/mL (≈ 3.65 µM) | 1.4 µg/mL (≈ 5.11 µM) | 
CCC#CCn1nc(-c2ccc(Cl)c(Cl)n2)ccc1=O [drawing 106] |  | 0.0537 µg/mL (≈ 0.174 µM) | 0.0371 µg/mL (≈ 0.12 µM) | 
CCC#CCN1N=C(c2ncccc2Cl)CCC1=O [drawing 108] |  | > 40 µg/mL | 33 µg/mL (≈ 120 µM) | 
CCC#CCn1nc(-c2ncccc2Cl)ccc1=O [drawing 109] |  | > 40 µg/mL | > 40 µg/mL | 
CCC#CCN1N=C(c2ncc(Cl)cc2Cl)CCC1=O [drawing 110] |  | 8 µg/mL (≈ 25.8 µM) | 3.47 µg/mL (≈ 11.2 µM) | 
CCC#CCn1nc(-c2ncc(Cl)cc2Cl)ccc1=O [drawing 111] |  | 13.6 µg/mL (≈ 44.1 µM) | 4.42 µg/mL (≈ 14.3 µM) | 
CC(C)(C)C#C/C=C/Cn1nc(-c2ccc(Cl)cn2)ccc1=O [drawing 112] |  | > 40 µg/mL | 8.11 µg/mL (≈ 24.7 µM) | 
CCC#CCN1N=C(c2nc(Cl)c(Cl)cc2Cl)CCC1=O [drawing 113] |  |  | 5.75 µg/mL (≈ 16.7 µM) | EC50 [2]: 8.71 µg/mL (≈ 25.3 µM)
CCC#CCn1nc(-c2ccc(Cl)c(F)n2)ccc1=O [drawing 114] |  | 0.048 µg/mL (≈ 0.165 µM) | 0.0236 µg/mL (≈ 0.0809 µM) | 
CCC#CCn1nc(-c2ccc(Cl)cn2)ccc1=O [drawing 116] |  |  |  | EC50 (Candida albicans): 0.091 µg/mL (≈ 0.332 µM)
CCCCCOCC#CCn1nc(-c2ccc(Cl)cn2)ccc1=O [drawing 117] |  |  |  | EC50 (Candida albicans; Candida albicans, 48 h): 0.176 µg/mL (≈ 0.509 µM)
CCC#CCn1nc(-c2ccc(Cl)cn2)ccc1=O [drawing 118] |  |  |  | EC50 (Candida albicans): 0.210 µg/mL (≈ 0.767 µM)
